Values after ≈ are worked out from the molar mass of the structure shown. Where two headings read alike, the source gives them in different places.
Experiments:
UTI89 E. coli = assay: Inhibition of haemagglutination (Example 19); type: cell-based, Escherichia coli; settings: two-fold dilution from 1 mM
Protocol: Interaction of E. coli FimH adhesins with the glycocalyx of guinea pig erythrocytes forms a cross-linked network into the wells. Glycoconjugates added in a two-fold dilution series prevents the agglutination reaction. The inhibition titer is defined as the lowest concentration of the glycoconjugate at which haemagglutination is still inhibited. UTI89 E. coli were grown statically overnight in LB at 37° C., washed three times in ice-cold phosphate-buffered saline and resolubilized. A two-fold dilution of glycoconjugates was prepared in 25 μL 20 mM HEPES pH 7.4 with 150 mM NaCl, starting from 1 mM as the highest concentration. The bacterial solution (25 μL) was added to the two-fold dilution series of the compound. Finally 50 μl of guinea pig red blood cells, washed in buffer and diluted to 5%, were added to a final 100 μL and left on ice for 30 min. before read-out. Due to serial dilutions, the maximal error is ±one well, or a factor two (FIG. 2).

lectin domain of FimH = biological target: T1, lectin domain of FimH (Escherichia coli, UniProt P08191); assay: Surface plasmon resonance solution competition assay; type: binding; settings: solution affinity, inhibition of FimH binding to immobilized mannoside, CM5 chip
T1 construct: The lectin domain of FimH was expressed as described previously and purified at pH 4.0; made in house
T1 sequence (P08191 22-179): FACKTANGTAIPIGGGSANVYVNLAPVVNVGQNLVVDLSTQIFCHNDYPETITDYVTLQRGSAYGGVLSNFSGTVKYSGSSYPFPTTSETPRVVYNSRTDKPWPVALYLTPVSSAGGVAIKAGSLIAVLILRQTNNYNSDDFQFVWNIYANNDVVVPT
Protocol: The affinity of the compounds was first evaluated and then measured in a surface plasmon resonance solution competition assay. The lectin domain of FimH was expressed as described previously and purified at pH 4.0 in 50 mM HCOOH on a SPFF (sulfopropyl fast flow) ion exchange column (GE Healthcare). A CM5 sensor chip (Biacore, GE Healthcare) has been coated with a layer of amino-functionalized monovalent heptyl mannoside to 60 RU (response units) and the kinetics of FimH binding to the sensor chip has been determined. All data collection have been performed in HBS buffer complemented with 3 mM EDTA and 0.01% Tween20. Regeneration was done with a single 10 s injection of 100 mM NaOH in water.
The solution affinity provided by the Biacore software uses the equation (B−A−Kd)/2+(0.25*(A+B+Kd)^2−A*B)^0.5, with B presenting the uninhibited concentration of FimH, and A the variable compound concentration.

[1] = test system: type-1 piliated clinical E. coli isolate UTI89; assay: Haemagglutination inhibition assay (HIA), guinea pig erythrocytes; type: cell-based, Escherichia coli; settings: read-out: Minimal inhibitory concentration (MIC) on haemagglutination
Protocol: Haemagglutination is observed as the red blood cells being held in suspension through the formation of a space-filling cross-linked network with the fimbriated bacteria.
The UIT89 clinical isolate was grown statically 37° C. for 48 hours in LB medium and analysed for haemagglutination of guinea pig red blood cells. Both bacteria and red blood cells (RBCs) were washed 3 times in ice-cold PBS (17 mM K/NaH2PO4, 150 mM NaCl). PBS was used for all dilutions. 96-well round-bottom microtiter plates were used for the dilutions. The titer for agglutination was determined in a 2-fold dilution series in PBS of the bacteria in a volume of 25 μL. Well 1 is a negative control without bacteria but 25 μL PBS. 25 μL PBS and 50 μL 5% RBCs were added to a final 100 μL volume. Upon 1 hour at 4° C., the titer was determined as the lowest concentration of bacteria that led to haemagglutination.
A bacterial concentration of twice the determined haemagglutination titer was kept constant in the haemagglutination inhibition assays. First, a 2-fold dilution series of the inhibitory compounds was performed in 25 μL PBS. Instead, in well 1 only 25 μL PBS was added as a negative control. 25 μL of the bacterial solution and 50 μl of 5% red blood cells were added to reach a final volume of 100 μL.

[2] = biological target: T2, monovalent lectin domain of FimH (Escherichia coli, UniProt P08191); type: binding; settings: for Kd / Molar ratio n meas / ΔG° / ΔH° / ΔS°: direct titration; for Kd: read-out: Kd
T2 construct: with the monovalent lectin domain of FimH were measured using isothermal calorimetry (ITC)
T2 sequence (P08191 22-179): as above

bladder cell line 5637 = assay: Anti-adhesives for bacterial bladder cell binding; type: cell-based; settings: ten-fold dilution series
Protocol: The anti-adhesive capacities of the HM-derivatized cyclodextrins 1-4 were tested in vitro on the bladder cell line 5637, in a procedure analogous as previously described (Wellens, A. et al., PLoS ONE 3: e2040 (2008)). The CD conjugates 1-4 were diluted in a ten-fold series. The minimum inhibitory concentrations (MIC) indicate the concentrations of sugars at which we see some inhibition of binding of FimH to the bladder cells, they do however not indicate complete inhibition. MIC values for the CD-conjugates 1-4 followed a similar trend as the inhibitory concentrations recorded in HIA.
The anti-adhesive capacities of the n-heptyl α-D-mannoside-derivatized cyclodextrins 1-4 were tested in vitro on the bladder cell line 5637, in a procedure analogous to as described in (Wellens, A. et al., PLoS ONE 3: e2040 (2008)). The ligands have been diluted 10-fold and this is also the resolution limit of these tests.

[3] = test system: E. coli strain UTI89 in the bladder of C3H/HeN mice; assay: In vivo inhibition in the murine cystitis model (instillation with UTI89)
Protocol: In vivo inhibition was evaluated by instilling 1-4 together with the UTI89 strain via a catheter in the bladder of C3H/HeN mice. […] A group of ten animals was used for each concentration of antagonists. […] The animals were sacrificed at a 6 h post infection time.
A murine model of urinary tract infection was used to test the ability of the compounds to inhibit the colonization of UTI89 in the bladder [Hung C. S.; Dodson, K. W., Hultgren S. J. Nat. Protoc. 2009, 4, 1230-1243 and Wellens A.; Garofalo C.; Nguyen H.; Van Gerven N.; Slättegård R.; Hernalsteens, J.-P.; Wyns, L.; Oscarson, S.; De Greve H.; Hultgren S. J.; Bouckaert, J. PLoS ONE 2008, 3, e2040]. The solution with high concentration of compounds was added to the resuspension of UTI89 before given to the mice. The eight-week old Female C3H/HeN mice (Harlan, Horst, The Netherlands) were anesthetized and infected via transurethral catheterization of 10^7 CFU UTI89 in solution in PBS, or in PBS with the compound in the mentioned concentration. The mice were sacrificed at 24 hours post infection and the bladders were harvested, homogenized and resuspended in PBS. The serial dilutions were spot on LB medium agar plates. The bacterial load was determined by counting the CFU recovered from the bladder. The animal experiments were approved by the Ethical Committer for Animal Experiments of Vrije Universiteit Brussel and complied with all relevant national legislation and institutional policies. The Mann-Whitney test was applied for the comparison of the data obtained from the untreated group and inhibition group in GraphPad Prism version 5.1 and two tailed P value were shown (GraphPad software).
A limited number of papers described the in vivo efficiency of anti-adhesive mannosides to treat UTIs.

[4] = test system: primary human peripheral venous blood monocyte-derived macrophages; assay: Macrophage-mediated phagocytosis of aged PMN cells; type: cell-based; settings: 500 nM
From the text: To estimate the influence of mannose-based inhibitors on possible inhibition of phagocytosis we used primary human peripheral venous blood monocyte-derived macrophages and estimated their ability to phagocyte autologous and allogenic human blood-derived PMN cells, as described by us previous (Bilyy, R. O. et al. (2012) J Biol Chem 287, 496-503).
Primary human PMN and MoMa from healthy volunteers were used. Monocytes were isolated from peripheral blood by LymphoPrep® gradient according to manufacture's recommendations for isolation of PBMC fraction. Plastic-attached cells of PBMC fraction were then cultured for 7 days in the presence of GM-CSF (100 U/ml) and autologous serum (added at days 1, 3 and 5) to generate MoMa. After 7 days of differentiation, the MoMa population was tested. They typically contain >95% CD11b+ cells, >90% CD14+ cells and >85% CD89+ cells. Phagocytosis was assessed by pre-incubation of PMN (freshly isolated or aged for 24 h) with mannose-based inhibitor for 30 min at 37° C. at Ringer buffer. Cells were thoroughly washed three times with Ringer solution and incubated with human MoMa for 2 hours. Uningested PMN were analyzed by flow cytometry (for this reason cells were pre-stained with CFSE (Rodel, F. et al. (2005) Strahlentherapie and Onkologie: Organ der Deutschen Rontgengesellschaft . . . [et al] 181, 456-462)) or in the hemocytometric chamber using Zeiss AxioImager A1 microscope. The percentage of prey cells that had been bound to or taken up by MoMa (% of phagocytosis) was calculated.

[5] = test system: AIEC LF82 strain adhesion to T84 intestinal epithelial cells; assay: Adhesion assay on T84 cells, cells incubated 1 h with mannoside prior infection (Example 21.1); type: cell-based, Escherichia coli
Protocol: E. coli strain LF82 was isolated from a chronic ileal lesion of a patient with Crohn's disease (CD). Bacteria were grown routinely in Luria-Bertani (LB) broth overnight at 37° C. Intestinal epithelial cells T84 derived from colonic adenocarcinoma were maintained in an atmosphere containing 5% CO2 at 37° C. in DMEM/F12 (50/50) medium supplemented with 10% (v/v) heat-inactivated fetal calf serum (FCS), 1% L-glutamine, 100 000 U·l^−1 penicillin, 100 mg·l^−1 streptomycin, 25 μg·l^−1 amphotericin B.
T84 cells were seeded in 48-well tissue culture plates with 1.5×10^5 cells per well and grown for 48 h. Cells were incubated 1 h prior infection with each mannoside at a final concentration of 100; 10; 1 or 0.1 μM in complete medium without antibiotics, containing heat inactivated fetal calf serum (FCS) and were next infected with AIEC LF82 strain at a multiplicity of infection (MOI) of 10 bacteria per cell. After a 3 h incubation period at 37° C., the monolayers were washed in phosphate-buffered saline (PBS; pH 7.2). The epithelial cells were then lysed with 1% Triton X-100 in deionized water. Samples were diluted and plated onto Luria Bertani agar plates to determine the number of cfu recovered from the lysed monolayers.
Results were expressed in percentage of residual adhesion, considering adhesion level of AIEC LF82 without mannoside treatment as 100%.

[6] = test system: AIEC strain LF82 adhesion to T84 intestinal epithelial cells; assay: Adhesion assay on T84 cells with thiazolylaminomannosides (Example 22.3); type: cell-based, Escherichia coli
Protocol: T84 Intestinal Epithelial cells (overexpressing the receptor CEACAM6) were beforehand incubated for 1 h with the synthetic thiazolylaminomannosides 6-20 (examples 3-17) at different concentrations. Each compound was tested four times at concentrations of 0.1, 1, 10 and 100 μM.
The cells were then infected in the presence of inhibitory compounds by the AIEC strain of reference LF82 for 3 hours at a multiplicity of infection of 10 bacteria to a cell. After 3 h of incubation, the monolayer was washed and the number of AIEC bacteria associated with cells was counted. The level of adhesion of AIEC LF82 strain in the presence of inhibitors (residual adhesion) was expressed relatively to the level of adherence in the absence of any treatment (considered 100%) (FIG. 10).

[7] = excluding spiky heat signals (2)

Nc1ccn([C@H]2OC(CO)[C@@H](O)C(O)C2O)c(=S)n1 (stereo partly drawn) [NM34, 4-amino-1-(2,3,4,6-tetrahydroxy-α-D-mannopyranosyl)pyrimidine-2(1H)-(thi)one]
Inhibitory potency in haemagglutination (FIG. 2) (UTI89 E. coli): non-effectiveness
Kd (lectin domain of FimH): 2370 nM

OCC1OC(OCCCCCCCOCc2cn(CCOCCOCCOCc3cn(CC4OC5OC6C(CO)OC(OC7C(CO)OC(OC8C(CO)OC(OC9C(CO)OC(OC%10C(CO)OC(OC%11C(CO)OC(OC4C(O)C5O)C(O)C%11O)C(O)C%10O)C(O)C9O)C(O)C8O)C(O)C7O)C(O)C6O)nn3)nn2)C(O)C(O)C1O (stereo not shown) [Compound 3]
MIC ([1]; UTI89 1.2 10^9 CFU/ml): 200 µM (≈ 341 µg/mL)
MIC ([1]; UTI89 1.4 10^8 CFU/ml): 50 µM (≈ 85.3 µg/mL)
MIC ([1]; UTI89 7 10^7 CFU/ml): 31 µM (≈ 52.9 µg/mL)
Affinity of FimH for the ligand (in words) ([2]; ITC): micromolar range
Kd ([2]; data processed to exclude spiky heat signals (2)): 1950 nM
Kd ([2]; data processed to include the whole binding event (1)): 4570 nM
Molar ratio n meas [2, 7]: 0.57
ΔG° [2, 7]: -7.7 kcal/mol
ΔH° [2, 7]: -4.8 kcal/mol
ΔS° [2, 7]: 9.9 cal/mol/deg
Molar ratio n meas ([2]; whole binding event (1)): 0.45
ΔG° ([2]; whole binding event (1)): -7.2 kcal/mol
ΔH° ([2]; whole binding event (1)): -10.0 kcal/mol
ΔS° ([2]; whole binding event (1)): −9.6 cal/mol/deg
MIC, anti-adhesive potency on bladder cell line 5637 (bladder cell line 5637): >400000 nM
Inhibition efficiency at decreased concentration ([3]; 0.1 mM): important drop in the inhibition efficiency
Reduction of the level of infection ([3]; instillation of 1 mM with UTI89): 10 fold

CO[C@H]1O[C@H](CO)[C@@H](O)[C@H](O)[C@@H]1O [αMM, α-D-methyl mannoside]
Phagocytosis rate [4]: significantly decreased phagocytosis rate

O=C[C@@H](O)[C@@H](O)[C@H](O)[C@H](O)CO [mannose, reference compound]
Concentration reaching around 75% of binding inhibition (25% line) [5]: 50000 µM
Concentration necessary to achieve a similar percentage of residual adhesion (decrease greater than 95%) [6]: 100 mM
Decrease of adherence to intestinal epithelial cells ([6]; 100 μM): about 25%

COc1ccn([C@H]2OC(CO)[C@@H](O)C(O)C2O)c(=S)n1 (stereo partly drawn) [NM30, 1-(2,3,4,6-tetrahydroxy-α-D-mannopyranosyl)-4-methoxypyrimidine-2(1H)-(thi)one]
Inhibitory potency in haemagglutination (FIG. 2) (UTI89 E. coli): non-effectiveness
Kd (lectin domain of FimH): 920 nM

Reference: US10273313B2, “Multimeric mannosides, a process for preparing the same and their uses as a drug” (CENTRE NATIONAL DE LA RECHERCHE SCIENTIFIQUE, priority 2012, dated 2019)
